Data on 31 molecules can be found in patent publication US11845752B2, “Substituted imidazo[1,5-a]pyrazines for the treatment of hepatitis B” (ALIGOS THERAPEUTICS, INC., priority 2020, dated 2023).

Each structure is given as a SMILES string.

For one assay, the system named is HBV. In words: HBV-DNA antiviral assay using HepG2.117 cells (intracellular HBV DNA by qPCR). The settings on record: HBV DNA inhibition, 3 days incubation, read-out: EC50. In kind it is cell-based, HBV genotype D. The method in brief:
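Read-outs: cell-lysate HBV DNA copies by qPCR (interpolated from gBlock standard) and parallel cellular ATP luminescence for CC50, both normalised to 2% DMSO controls and fitted by non-linear regression. HepG2.117 Tet-off genotype D HBV cells, induced by doxycycline removal, exposed 3 days to 4-fold serial dilutions.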
On the technique in general: Quantitative PCR measures a nucleic acid by following its amplification.
What is called EC50 is the concentration giving half of the maximal effect. In the case of `Cc1nnc(-c2ccccc2CNC(=O)c2c3n(c(=O)n2-c2ccc4oc(C)nc4c2)CC(C)N(C(=O)c2ccc(Br)c(Cl)c2)C3)o1` (single isomer, unassigned) [Compound 53b], the concentration giving a half-maximal response (EC50) was 50 to 500 nM.
On to `CC1Cn2c(c(C(=O)NCc3c(F)cccc3-c3cccnn3)n(-c3ccc(OC4CC4)cc3)c2=O)CN1C(=O)c1ccc(Br)c(Cl)c1` (single isomer, unassigned) [Compound 49b], for which the EC50 was in the range of 50 to 500 nM.
As to `CCC(=O)COc1ccc(-n2c(C(=O)NCc3ccccc3-c3ncccn3)c3n(c2=O)CC(C)N(C(=O)c2ccc(Br)c(C(F)(F)F)c2)C3)cc1` (single isomer, unassigned) [Compound 70b], the EC50 was < 50 nM.
With `CC1Cn2c(c(C(=O)NCc3ccccc3-c3ccncn3)n(-c3ccc4nn(CC(F)(F)F)cc4c3)c2=O)CN1C(=O)c1ccc(Br)c(C(F)(F)F)c1` (single isomer, unassigned) [Compound 79b], the concentration giving a half-maximal response (EC50) is < 50 nM.
On to `CC1Cn2c(c(C(=O)NCc3ccccc3-c3cc(N)cnn3)n(-c3ccc(OC4CC4)cc3)c2=O)CN1C(=O)c1ccc(Br)c(C(F)(F)F)c1` (single isomer, unassigned) [Compound 43b], for which the half-maximal effective concentration (EC50) lay in the range of 50 to 500 nM.
For the molecule `COc1nccc(-c2ccccc2CNC(=O)c2c3n(c(=O)n2-c2ccc(OC4CC4)cc2)CC(C)N(C(=O)c2ccc(Br)c(Cl)c2)C3)n1` (single isomer, unassigned) [Compound 37b], the EC50 is < 50 nM.
As for `CC1Cn2c(c(C(=O)NCc3ccccc3-c3ncccn3)n(-c3ccc(N4CCN(C)CC4)cc3)c2=O)CN1C(=O)c1ccc(Br)c(Cl)c1` (single isomer, unassigned) [Compound 21b], the EC50 lay in the range of 50 to 500 nM.
Still for that read-out and setting: the result for `CC1Cn2c(c(C(=O)NCc3ccccc3-c3ccn(C)n3)n(-c3ccc(OC4CC4)cc3)c2=O)CN1C(=O)c1ccc(Br)c(Cl)c1` (single isomer, unassigned) [Compound 22b] reads < 50 nM.
For `CC1Cn2c(c(C(=O)NCc3ccccc3-c3cn(C)cn3)n(-c3ccc(OC4CC4)cc3)c2=O)CN1C(=O)c1ccc(Br)c(Cl)c1` (single isomer, unassigned) [Compound 18b, 7-(4-bromo-3-chloro-benzoyl)-2-[4-(cyclopropoxy)phenyl]-6-methyl-N-[[2-(1-methylimidazol-4-yl)phenyl]methyl]-3-oxo-6,8-dihydro-5H-imidazo[1,5-a]pyrazine-1-carboxamide], the EC50 is < 50 nM.
On to `CC1Cn2c(c(C(=O)NCc3c(F)cccc3Cl)n(-c3ccc4c(cnn4CC(F)(F)F)c3)c2=O)CN1C(=O)c1ccc(Br)c(C(F)(F)F)c1` (single isomer, unassigned) [Compound 104b], for which the EC50 was 50 to 500 nM.
The same measure, in the same setting: with `CC1Cn2c(c(C(=O)NCc3ccccc3-c3ncccn3)n(-c3ccc4c(cnn4CC(F)(F)F)c3)c2=O)CN1C(=O)c1ccc(Br)c(C(F)(F)F)c1` (single isomer, unassigned) [Compound 100b] the figure was < 50 nM.

Staying with this assay, now noted: Hepatitis B virus, HepG2.117, 72 h, HBV DNA inhibition, 3 days incubation, read-out: EC50.
Take `CC1Cn2c(c(C(=O)NCc3ccccc3-c3ncccn3)n(-c3ccc4c(cnn4C[C@@H](C)O)c3)c2=O)CN1C(=O)c1ccc(Br)c(C(F)(F)F)c1` (stereo in doubt) [Compound 91a, (6R*)-7-[4-bromo-3-(trifluoromethyl)benzoyl]-2-{1-[(2R)-2-hydroxypropyl]indazol-5-yl}-6-methyl-3-oxo-N-{[2-(pyrimidin-2-yl)phenyl]methyl}-5H,6H,8H-imidazo[1,5-a]pyrazine-1-carboxamide]: the concentration for a half-maximal effect (EC50) is 50 to 500 nM.
As for `C[C@H](O)Cn1ncc2cc(-n3c(C(=O)NCc4ccccc4-c4ncccn4)c4n(c3=O)C[C@@H](C)N(C(=O)c3ccc(Br)c(C(F)(F)F)c3)C4)ccc21` (mixture of isomers) [Compound 94a, (6RS)-7-[4-bromo-3-(trifluoromethyl)benzoyl]-2-[1-[(2S)-2-hydroxypropyl]indazol-5-yl]-6-methyl-3-oxo-N-[(2-pyrimidin-2-ylphenyl)methyl]-6,8-dihydro-5H-imidazo[1,5-a]pyrazine-1-carboxamide], the EC50 fell in the range of 50 to 500 nM.
Take `C[C@@H]1Cn2c(c(C(=O)NCc3c(F)cccc3-c3ccccn3)n(-c3ccc(OC4CC4)cc3)c2=O)CN1C(=O)c1ccc(Br)c(C(F)(F)F)c1` (racemic) [Compound 41a, rac-(6R)-7-[4-bromo-3-(trifluoromethyl)benzoyl]-2-[4-(cyclopropoxy)phenyl]-N-[[2-fluoro-6-(2-pyridyl)phenyl]methyl]-6-methyl-3-oxo-6,8-dihydro-5H-imidazo[1,5-a]pyrazine-1-carboxamide]: the EC50 was < 50 nM.
Consider `CC1Cn2c(c(C(=O)NCc3c(F)cccc3-c3cccc(N)n3)n(-c3ccc(OC4CC4)cc3)c2=O)CN1C(=O)c1ccc(Br)c(Cl)c1` (single isomer, unassigned) [Compound 35a], for which the EC50 fell in the range of 50 to 500 nM.
Turning to `C[C@@H]1Cn2c(c(C(=O)NCc3ccccc3-c3ccncn3)n(-c3ccc(OC[C@H](O)C(F)(F)F)cc3)c2=O)CN1C(=O)c1ccc(Br)c(C(F)(F)F)c1` (stereo in doubt) [Compound 63a, (6RS)-7-[4-bromo-3-(trifluoromethyl)benzoyl]-6-methyl-3-oxo-N-[(2-pyrimidin-4-ylphenyl)methyl]-2-[4-[(25)-3,3,3-trifluoro-2-hydroxy-propoxy]phenyl]-6,8-dihydro-5H-imidazo[1,5-a]pyrazine-1-carboxamide], the EC50 was < 50 nM.
Still for that read-out and setting: the result for `COc1nccc(-c2ccccc2CNC(=O)c2c3n(c(=O)n2-c2ccc(OC4CC4)cc2)CC(C)N(C(=O)c2ccc(Br)c(Cl)c2)C3)n1` (single isomer, unassigned) [Compound 37a] reads 50 to 500 nM; that for `CC1Cn2c(c(C(=O)NCc3c(F)cccc3-n3cccn3)n(-c3ccc(OC4CC4)cc3)c2=O)CN1C(=O)c1ccc(Br)c(C(F)(F)F)c1` (single isomer, unassigned) [Compound 25a], 50 to 500 nM; that for `CC1Cn2c(c(C(=O)NCc3c(F)cccc3-c3cccnn3)n(-c3ccc(OC4CC4)cc3)c2=O)CN1C(=O)c1ccc(Br)c(Cl)c1` (single isomer, unassigned) [Compound 49a], 50 to 500 nM.
For `CC1Cn2c(c(C(=O)NCc3c(F)cccc3-c3cccnn3)n(-c3ccc(OC4CC4)cc3)c2=O)CN1C(=O)c1ccc(Br)c(C(F)(F)F)c1` (single isomer, unassigned) [Compound 50a], the EC50 was 50 to 500 nM.
On to `CCC(=O)COc1ccc(-n2c(C(=O)NCc3ccccc3-c3ncccn3)c3n(c2=O)CC(C)N(C(=O)c2ccc(Br)c(C(F)(F)F)c2)C3)cc1` (single isomer, unassigned) [Compound 70a], for which the EC50 lay within 50 to 500 nM.
In the case of `CC1Cn2c(c(C(=O)NCc3ccccc3-n3cc(F)cn3)n(-c3ccc(N4CCO[C@H](C)C4)cc3)c2=O)CN1C(=O)c1ccc(Br)c(Cl)c1` (stereo in doubt) [Compound 14a, (6R*)-7-(4-bromo-3-chloro-benzoyl)-N-[[2-(4-fluoropyrazol-1-yl)phenyl]methyl]-6-methyl-2-[4-[(2R)-2-methylmorpholin-4-yl]phenyl]-3-oxo-6,8-dihydro-5H-imidazo[1,5-a]pyrazine-1-carboxamide], the 50% effective concentration (EC50) lay within 50 to 500 nM.
Take `CC1Cn2c(c(C(=O)NCc3ccccc3-c3ccccn3)n(-c3ccc(OC4CC4)cc3)c2=O)CN1C(=O)c1ccc(Br)c(C(F)(F)F)c1` (single isomer, unassigned) [Compound 34a]: the concentration giving a half-maximal response (EC50) was < 50 nM.
As to `CC1Cn2c(c(C(=O)NCc3ccccc3-c3cccnn3)n(-c3ccc(N4CC5(CN(C)C5)C4)cc3)c2=O)CN1C(=O)c1ccc(Br)c(C(F)(F)F)c1` (single isomer, unassigned) [Compound 76a], the EC50 lay in the range of 500 to 5000 nM.
As for `CC1Cn2c(c(C(=O)NCc3ccccc3-c3ncccn3)n(-c3ccc(N4CCN(C)CC4)cc3)c2=O)CN1C(=O)c1ccc(Br)c(Cl)c1` (single isomer, unassigned) [Compound 21a], the EC50 was < 50 nM.
Take `C[C@H]1Cn2c(c(C(=O)NCc3ccccc3-c3ncccn3)n(-c3ccc4c(cnn4C[C@H](O)C(F)(F)F)c3)c2=O)CN1C(=O)c1ccc(Br)c(C(F)(F)F)c1` (mixture of isomers) [Compound 102b, (6SR)-7-[4-bromo-3-(trifluoromethyl)benzoyl]-6-methyl-3-oxo-N-[(2-pyrimidin-2-ylphenyl)methyl]-2-[1-[(2S)-3,3,3-trifluoro-2-hydroxy-propyl]indazol-5-yl]-6,8-dihydro-5H-imidazo[1,5-a]pyrazine-1-carboxamide]: the EC50 is < 50 nM.
On to `C[C@H]1Cn2c(c(C(=O)NCc3ccccc3-c3ncccn3)n(-c3ccc4nn(C[C@H](O)C(F)(F)F)cc4c3)c2=O)CN1C(=O)c1ccc(Br)c(C(F)(F)F)c1` (mixture of isomers) [Compound 107b, (6SR)-7-[4-bromo-3-(trifluoromethyl)benzoyl]-6-methyl-3-oxo-N-[(2-pyrimidin-2-ylphenyl)methyl]-2-[2-[(2S)-3,3,3-trifluoro-2-hydroxy-propyl]indazol-5-yl]-6,8-dihydro-5H-imidazo[1,5-a]pyrazine-1-carboxamide], for which the EC50 was in the range of 50 to 500 nM.
Turning to `O=C(NCc1ccccc1)c1c2n(c(=O)n1-c1ccc(N3CC4CC[C@@H]3CO4)cc1)CCN(C(=O)c1ccc(Br)c(Cl)c1)C2` (single isomer, unassigned) [Compound 125b], the EC50 is 50 to 500 nM.
For the molecule `O=C(NCc1ccccc1)c1c2n(c(=O)n1-c1ccc(N3CCOC(F)(F)C3)cc1)CCN(C(=O)c1ccc(Br)c(Cl)c1)C2` [Compound 119, N-benzyl-7-(4-bromo-3-chloro-benzoyl)-2-[4-(2,2-difluoromorpholin-4-yl)phenyl]-3-oxo-6,8-dihydro-5H-imidazo[1,5-a]pyrazine-1-carboxamide], the EC50 is 50 to 500 nM.
As for `CNc1cc(-c2ccccc2CNC(=O)c2c3n(c(=O)n2-c2ccc(OC4CC4)cc2)CC(C)N(C(=O)c2ccc(Br)c(C(F)(F)F)c2)C3)ncn1` (single isomer, unassigned) [Compound 40a], the EC50 is < 50 nM.
In the case of `CC1Cn2c(c(C(=O)NCc3ccccc3-c3c[nH]cn3)n(-c3ccc(OC4CC4)cc3)c2=O)CN1C(=O)c1ccc(Br)c(Cl)c1` (single isomer, unassigned) [Compound 44a], the EC50 lay within 50 to 500 nM.
